This experiment addresses T1, Chymase purified form human skin mast cells (Homo sapiens, UniProt P23946).
T1 construct: Chymase purified form human skin mast cells was obtained from Calbiochem; purchased Calbiochem (Merck Biosciences, San Diego, Calif., USA); host or cells: human skin mast cells (tissue-derived, not recombinant)
T1 sequence (P23946 22-247): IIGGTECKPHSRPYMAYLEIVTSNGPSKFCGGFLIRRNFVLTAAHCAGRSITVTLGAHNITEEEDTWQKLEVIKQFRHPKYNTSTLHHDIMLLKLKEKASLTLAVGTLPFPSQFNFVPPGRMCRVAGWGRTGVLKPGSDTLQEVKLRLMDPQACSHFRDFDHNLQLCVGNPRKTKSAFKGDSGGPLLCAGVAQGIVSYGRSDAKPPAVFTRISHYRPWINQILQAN
Put plainly: chymase peptide substrate assay (AAPF-AMC fluorescence). The experiment is classed as biochemical. Conditions: 0.02 mM AAPF-substrate, 1 nM Chymase, pH 7.4, room temperature, 30 min pre-incubation. The method, then:
The peptide was synthesized with a purity of 95% from Bachem, Bubendorf, Switzerland). Chymase purified form human skin mast cells was obtained from Calbiochem (Merck Biosciences, San Diego, Calif., USA). The assay buffer was 0.15 M NaCl, 0.05M, Tris HCl, 0.05% CHAPS (3-[(3-Cholamidopropyl)-dimethylammonio]-1-propane sulphonate), 0.1 mg/ml Heparin (Heparin sodium, Sigma, porcine intestinal mucosa), 0.02 mM AAPF-substrate, 1 nM Chymase at pH 7.4. The assay was performed in 96-well plates (Packard Optiplate), with a 0.05 ml volume at room temperature. Chymase activity was indicated by the initial rate of increase in fluorescence at 340/440 nm (excitation/emission) from free 7-amino-4-methylcoumarin released from the substrate. Inhibition of the activity by inhibitory compounds was read after 30 min pre-incubation with the chymase at room temperature in assay buffer without AAPF-substrate. The assay was then started by addition of the indicated concentration of AAPF-substrate.

The term IC50 denotes the concentration at which inhibition is half-maximal. Low values mean higher potency, high ones lower potency. Consider `Cc1c(C(C2=C(O)C(C(C)C)N(C)C2=O)c2ccccc2)[nH]c2ccc(F)cc12` (stereo not shown) [Example 11, 3-[(5-Fluoro-3-methyl-1H-indol-2-yl)-phenyl-methyl]-4-hydroxy-5-isopropyl-1-methyl-1,5-dihydro-pyrrol-2-one], for which the concentration for half-maximal inhibition (IC50) came to 13 nM.

`CC(=O)NCCc1c(C(C2=C(O)C(Cc3ccccc3)OC2=O)c2ccccc2)[nH]c2cc(F)ccc12` (stereo not shown) [Example 16, N-(2-{2-[(5-Benzyl-4-hydroxy-2-oxo-2,5-dihydro-furan-3-yl)-phenyl-methyl]-6-fluoro-1H-indol-3-yl}-ethyl)-acetamide] came in with an IC50 of 24 nM.

Molecule `CC(=O)NCCc1c(C(C2=C(O)C(c3ccccc3)CC2=O)c2ccccc2)[nH]c2cc(F)ccc12` (stereo not shown) [Example 43, N-(2-{6-Fluoro-2-[(2-hydroxy-5-oxo-3-phenyl-cyclopent-1-enyl)-phenyl-methyl]-1H-indol-3-yl}-ethyl)-acetamide] gave an IC50 of 3 nM. Compared with the last molecule, the IC50 is about 8-fold lower.

`CC(=O)NCc1c(C(C2=C(O)[C@@](C)(c3ccccc3)NC2=O)c2ccccc2)[nH]c2cc(C)ccc12` (stereo partly drawn) [Example 63, N-{2-[((R)-4-Hydroxy-5-methyl-2-oxo-5-phenyl-2,5-dihydro-1H-pyrrol-3-yl)-phenyl-methyl]-6-methyl-1H-indol-3-ylmethyl}-acetamide] gave a 50% inhibitory concentration (IC50) of 10 nM.

With `Cc1c(C(C2=C(O)[C@@](C)(c3ccccc3)NC2=O)c2ccccc2)[nH]c2ccc(F)cc12` (stereo partly drawn) [Example 67, (R)-3-[(5-Fluoro-3-methyl-1H-indol-2-yl)-phenyl-methyl]-4-hydroxy-5-methyl-5-phenyl-1,5-dihydro-pyrrol-2-one], the IC50 is 5 nM.

In turn, `CC(=O)NCc1c(C(C2=C(O)[C@@](C)(c3ccccc3)OC2=O)c2ccccc2)[nH]c2cc(C)ccc12` (stereo partly drawn) [Example 72, N-{2-[((R)-4-Hydroxy-5-methyl-2-oxo-5-phenyl-2,5-dihydro-furan-3-yl)-phenyl-methyl]-6-methyl-1H-indol-3-ylmethyl}-acetamide] showed an IC50 of 15 nM.

The molecule `Cc1c(C(C2=C(O)C(c3ccccc3)CC2=O)c2ccccc2)[nH]c2ccc(F)cc12` (stereo not shown) [Example 79, 2-[(5-Fluoro-3-methyl-1H-indol-2-yl)-phenyl-methyl]-3-hydroxy-4-phenyl-cyclopent-2-enone] yielded an IC50 of 2 nM.

The record behind these values is patent US7612099B2, “Vinylogous acid derivatives” (Hoffmann-La Roche Inc., priority 2005, dated 2009).
